Assay results published in paper PMC4140816, “Differential Sensitivity of Src-Family Kinases to Activation by SH3 Domain Displacement” (PLoS ONE, 2014).
Several values for one entry are separate records, joined by “and”; a condition that tells them apart may be missing. Equal values may be shown once. Read-outs that look alike come from different tables or passages of the source.

Assays:
Lyn-YEEI = Lyn-YEEI (Homo sapiens, UniProt P07948, Q509E/Q510E/Q511I); assay: Km determination, ADP Quest assay, Lyn-YEEI; type: biochemical; settings: pH 7.4, 25°C, 250 ng/well kinase, mean ±S.E.
Sequence of Lyn-YEEI (P07948 63-512 Q509E/Q510E/Q511I limits assumed): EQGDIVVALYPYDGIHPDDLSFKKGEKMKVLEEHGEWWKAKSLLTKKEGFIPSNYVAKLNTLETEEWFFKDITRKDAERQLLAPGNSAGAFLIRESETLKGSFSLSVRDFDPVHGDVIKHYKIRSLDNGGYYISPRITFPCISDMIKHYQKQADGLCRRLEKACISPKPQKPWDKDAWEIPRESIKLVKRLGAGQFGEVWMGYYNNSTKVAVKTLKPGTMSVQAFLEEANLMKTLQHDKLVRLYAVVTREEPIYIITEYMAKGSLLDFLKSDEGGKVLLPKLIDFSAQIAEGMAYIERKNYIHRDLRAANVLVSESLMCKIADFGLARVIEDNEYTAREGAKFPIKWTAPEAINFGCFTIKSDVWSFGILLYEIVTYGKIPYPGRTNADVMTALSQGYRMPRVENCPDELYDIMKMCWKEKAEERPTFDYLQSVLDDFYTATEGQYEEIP

Hck-YEEI = Hck-YEEI (Homo sapiens, UniProt P08631, Q523E/Q524E/Q525I); assay: Km determination, ADP Quest assay, Hck-YEEI; type: biochemical; settings: pH 7.4, 25°C, 150 ng/well kinase, mean ±S.E.
Sequence of Hck-YEEI (P08631 78-526 Q523E/Q524E/Q525I limits assumed): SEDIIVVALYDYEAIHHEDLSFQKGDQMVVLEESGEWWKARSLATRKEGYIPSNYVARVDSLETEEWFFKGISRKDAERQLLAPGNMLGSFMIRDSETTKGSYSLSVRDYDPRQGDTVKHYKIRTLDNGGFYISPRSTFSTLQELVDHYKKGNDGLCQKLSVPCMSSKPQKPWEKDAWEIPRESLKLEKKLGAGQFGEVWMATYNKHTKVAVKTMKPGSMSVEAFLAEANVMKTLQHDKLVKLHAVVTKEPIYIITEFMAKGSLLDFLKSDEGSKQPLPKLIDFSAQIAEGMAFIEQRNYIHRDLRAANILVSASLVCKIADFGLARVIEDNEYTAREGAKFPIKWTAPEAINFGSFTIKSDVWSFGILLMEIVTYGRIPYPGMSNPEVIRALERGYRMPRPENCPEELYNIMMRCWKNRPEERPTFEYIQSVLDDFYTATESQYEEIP

Fyn-YEEI = Fyn-YEEI (Homo sapiens, UniProt P06241); assay: Km determination, ADP Quest assay, Fyn-YEEI; type: biochemical; settings: pH 7.4, 25°C, 150 ng/well kinase, mean ±S.E.
Sequence of Fyn-YEEI (P06241 with tags, fused parts or gaps): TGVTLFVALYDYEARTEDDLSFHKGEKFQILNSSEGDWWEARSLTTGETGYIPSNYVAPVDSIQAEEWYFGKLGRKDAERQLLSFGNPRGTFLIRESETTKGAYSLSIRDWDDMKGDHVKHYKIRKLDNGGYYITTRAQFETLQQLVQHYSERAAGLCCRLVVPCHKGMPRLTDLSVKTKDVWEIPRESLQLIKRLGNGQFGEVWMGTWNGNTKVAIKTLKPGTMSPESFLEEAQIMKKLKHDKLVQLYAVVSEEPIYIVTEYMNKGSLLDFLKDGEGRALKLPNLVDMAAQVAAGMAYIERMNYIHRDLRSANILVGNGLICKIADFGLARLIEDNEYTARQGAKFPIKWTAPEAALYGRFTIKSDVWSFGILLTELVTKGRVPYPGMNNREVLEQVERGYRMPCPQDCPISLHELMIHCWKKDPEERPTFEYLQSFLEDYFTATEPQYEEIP

Lyn SH3 domain = Lyn SH3 domain (Homo sapiens, UniProt P07948); assay: SPR, VSL12 binding to Lyn SH3; settings: biotinylated VSL12 on SA chip, 25°C, duplicate runs
Sequence of Lyn SH3 domain (P07948 63-123 limits assumed): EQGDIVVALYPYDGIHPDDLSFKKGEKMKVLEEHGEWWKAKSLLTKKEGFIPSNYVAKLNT
Procedure: The biotinylated peptide was immobilized to 80 Response Units (RU) on the surface of a streptavidin (SA) biosensor chip. The recombinant purified Src SH3 domain proteins were flowed past the peptide over the concentration ranges shown. Association was measured for 180 s, followed by a 300 s dissociation phase.
The C-terminus of each construct was modified by the addition of the sequence […] as encoded by the XhoI site and the His6 tag in the vector. For expression of the SH3 and SH2 domains, E. coli strain Rosetta 2(DE3)pLysS (EMD Millipore) was transformed with each plasmid and cultures were grown at 37°C until the OD600 reached 0.8–1.0. Protein expression was induced with 0.4 mM isopropyl -D-thiogalactopyranoside (IPTG) for 4 h at 25°C. The isolated KDs were expressed as previously described by Seeliger, et al. For purification, cell pellets were resuspended in ion-exchange start buffer (20 mM Tris-HCl, pH 8.5, 5 mM -mercaptoethanol, 10% glycerol), sonicated, and clarified by centrifugation. […] Recombinant purified protein concentrations were quantified by Bradford assay using the BioRad Protein Assay Dye Reagent Concentrate and purified BSA as a reference standard (Pierce).
SPR experiments were performed using a Biacore 3000 Instrument (GE Healthcare) on a streptavidin (SA) biosensor chip. […] Association was measured for 180 s, followed by 300 s of dissociation in HBS-EP running buffer. […]

Src-YEEI = Src-YEEI (Homo sapiens, UniProt P12931); type: biochemical; settings: pH 7.4; read-out: Km YIYGSFK
[1] = peptide substrate at Km, n = 3, read-out: Km ATP
[2] = ATP held constant at 200 (µM), n = 4, read-out: Km YIYGSFK

Nc1ncnc2c1ncn2[C@@H]1O[C@H](COP(=O)(O)OP(=O)(O)OP(=O)(O)O)[C@@H](O)[C@H]1O [ATP]
Km (Lyn-YEEI; [1]): 31.1 ± 9.7 µM
Km (Hck-YEEI; [1]): 55.8 ± 18.5 µM
Km (Fyn-YEEI; [1]): 49.7 ± 8.2 µM

CC(C)C[C@H](NC(=O)[C@H](CO)NC(=O)[C@@H](N)C(C)C)C(=O)N[C@@H](C)C(=O)N[C@@H](CCCN=C(N)N)C(=O)N[C@@H](CCCN=C(N)N)C(=O)N1CCC[C@H]1C(=O)N[C@@H](CC(C)C)C(=O)N1CCC[C@H]1C(=O)N1CCC[C@H]1C(=O)N[C@@H](CC(C)C)C(=O)N1CCC[C@H]1C(=O)O [VSL12]
Kd (Lyn SH3 domain; 31.25-250 nM SH3, 1:1 Langmuir fit, χ^2 1.850, read-out: Kinetic KD): 0.647 µM
Kd (Lyn SH3 domain; 31.25-250 nM SH3, steady state model, χ^2 0.225, read-out: Steady-State KD): 0.562 µM

YIYGSFK [SFK substrate peptide; Anaspec]
Km (Lyn-YEEI; [2]): 83.2 ± 4.9 µM
Km (Hck-YEEI; [2]): 83.8 ± 12.5 µM
Km (Src-YEEI): 159 µM
Km (Fyn-YEEI; [2]): 70 µM and 69.6 µM
